Measurements: patent EP2150534B1, “ISOQUINOLINONE DERIVATIVES AS NK3 ANTAGONISTS” (H. Lundbeck A/S, priority 2007, dated 2008)
Where two headings read alike, the source gives them in different places.

How the values were obtained:
[1] = target: T1, human NK3 receptor (Homo sapiens, UniProt P29371); assay: NK3 receptor binding assay (SPA-based competition binding with 125I-NKB, membranes of BHK cells)
T1 construct: expressed in transfected cells; membranes prepared from them
T1 sequence (P29371 1-465): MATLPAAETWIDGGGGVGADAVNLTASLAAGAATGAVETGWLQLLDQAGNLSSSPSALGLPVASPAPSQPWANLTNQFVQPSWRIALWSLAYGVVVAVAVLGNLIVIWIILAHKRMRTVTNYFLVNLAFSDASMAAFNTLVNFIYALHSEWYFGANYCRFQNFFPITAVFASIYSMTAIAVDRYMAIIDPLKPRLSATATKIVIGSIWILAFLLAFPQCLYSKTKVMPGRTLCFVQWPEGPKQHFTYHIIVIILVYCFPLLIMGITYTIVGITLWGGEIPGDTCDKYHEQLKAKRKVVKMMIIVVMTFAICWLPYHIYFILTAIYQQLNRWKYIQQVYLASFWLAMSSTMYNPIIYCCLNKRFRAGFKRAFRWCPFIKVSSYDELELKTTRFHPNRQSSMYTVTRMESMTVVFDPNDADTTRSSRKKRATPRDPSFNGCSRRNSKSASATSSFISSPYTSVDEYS
Procedure: Membranepreparation: BHK cells stably expressing the human NK3 receptor were seeded in harvesting plates in Dulbeccos MEM containing GlutaMax (862 mg/l), 1 mM sodium pyruvate, 10% fetal calf serum, 1% Pen/Strep, I mg/ml G418 and were grown at 34 °C in a humidified atmosphere containing 10% CO2. To increase receptor expression, 10 µM trichotatin A was added to the media 24 hours before harvest of the cells at a confluency of app 90%. Prior to the harvesting, the cells were washed twice with PBS without Mg^2+ og Ca^2+ and subsequently scrapped of in 10 ml PBS pr harvesting plate. The cells suspension were centrifuged at 1500xG in three minutes before resuspension in 15 mM Tris-HCl pH 7,5 buffer containing 2 mM MgCl2; 0,3 mM EDTA and 1 mM EGTA (buffer A). The cell suspention was homogenised and subsequently centrifuged at 40000xG in 30 minutes. The membrane-pellet was resuspended in buffer A containing 250 mM sucrose, alliquoted and stored at - 80°C.
Affinity assay description: The assay was performed as a SPA-based competition-binding assay in a 50 mM Tris pH 7.4 assay buffer containing 120 mM NaCl, 3 mM MnCl2, 40 µg/ml bacitracin, 2 µg/ml Chymostatin, 1 µg/ml Phosphoramidon and 4 µg/ml Leupeptin. App 0.02 nM ^125I-NKB was mixed with test compounds before addition of 4 µg of the homogenised NK3 membrane preparation and 0,025 mg SPA beads in a total volume of 60 µl. The assay plate was subsequently under agitation incubated for 90 min at RT. The plate was centrifugated 10 minutes at 500xG and counted in a topcounter 5 minuttes pr well.
The non-specific binding constituted app 5 % of the total binding.
Data points were expressed in percent of the specific binding of ^125I-NKB and the IC50 values (concentration causing 50 percent inhibition of ^125I-NKB specific binding) were determined by non-linear regression analysis using a sigmoidal variable slope curve fitting. The dissociation constant (Ki) were calculated from the Cheng Prusoff equation (Ki = IG50/(1+(L/KD))), where the concentration of free radioligand L is approximated to the concentration of added ^125I-NKB in the assay (app 0,02 nM).
The KD of ^125I-NKB was determined to be 0,7 nM from three independent saturation assays each performed with duplicate determinations. Bmax was app 2 pmol/mg.

[2] = target: T1, human NK3 receptor; assay: NK3 receptor efficacy and potency assay (FLIPR Calcium 4 assay, BHK cells; agonist and antagonist mode versus NKB); type: cell-based; details: read-out: Potency cIC50
Procedure: BHK cells stably expressing the human NK3 receptor were seeded in 100 µl media in black walled clear-base 96-wells plates (Costar) aiming at a confluency of 95-100% at the day of assay. The assay was performed according to the FLIPR Calcium 4 Assay kit (Molecular Devices). At the day of the assay, the media was removed and the cells were washed once with the HBSS buffer (Hanks BSS buffer, pH 7,4 containing 20 mM Hepes) before 100 µl of a solution of the calcium assay reagent dissolved in the HBSS buffer containing 2,5 mM probinicid was added to the cells. The plates were incubated for 60 min at 34°C, 10% CO2 before use in the FLIPR for examination of fluorescence.
For efficacy and potency evaluation of compounds, these were diluted in HBSS buffer prior to test. For test of agonist activity, 25 µl of the diluted compound solution was added and the plate was analyzed for 5 minutes in the FLIPR. […] The plates were subsequently analyzed for 5 minutes before the assay was terminated. The maximal increase in fluorescence over background following each ligand addition was determined.

[3] = table of Example 10, affinity obtained as described in Example 9, read-out: Affinity Ki
[4] = Ki for the NK3 receptor, table of Example 9, 125I-NKB competition binding, read-out: Ki

Ki [1, 3] [nM]	IC50 [2] [nM]	Ki [1, 4] [nM]	Structure (SMILES)
340	450		CC[C@H](NC(=O)c1c(CN2CCNC(=O)C2)n(-c2ccccc2)c(=O)c2ccccc12)c1ccccc1 [Example 2df, 1-Oxo-3-(3-oxo-piperazin-1-ylmethyl)-2-phenyl-1,2-dihydro-isoquinoline-4-carboxylic acid ((S)-1-phenyl-propyl)-amide]
12	100		CC(=O)N(C)C1(c2ccccc2)CCN(Cc2c(C(=O)NC(c3cccc(F)c3)C3CC3)c3ccccc3c(=O)n2-c2ccccc2)CC1 (centres unmarked) [Example 2ia, 3-[4-(Acetyl-methyl-amino)-4-phenyl-piperidin-1-ylmethyl]-1-oxo-2-phenyl-1,2-dihydro-isoquinoline-4-carboxylic acid [cyclopropyl-(3-fluoro-phenyl)-methyl]-amide]
140	240		CC[C@H](NC(=O)c1c(CN2CC[C@H](O)C2)n(-c2ccccc2)c(=O)c2ccccc12)c1ccccc1 [Example 2es, 3-((S)-3-Hydroxy-pyrrolidin-1-ylmethyl)-1-oxo-2-phenyl-1,2-dihydro-isoquinoline-4-carboxylic acid ((S)-1-phenyl-propyl)-amide]
14	35		O=C(NC(c1cccc(F)c1)C1CC1)c1c(CN2CCN(CCN3CCCC3)CC2)n(-c2ccccc2)c(=O)c2ccccc12 (centres unmarked) [Example 2hv, 1-Oxo-2-phenyl-3-[4-(2-pyrrolidin-1-yl-ethyl)-piperazin-1-ylmethyl]-1,2-dihydro-isoquinolinc-4-carboxylic acid [cyclopropyl-(3-fluoro-phenyl)-methyl]-amide]
8.8	63		O=C(NC(c1cccc(F)c1)C1CC1)c1c(CN2CCC(CCN3CCOCC3)CC2)n(-c2ccccc2)c(=O)c2ccccc12 (centres unmarked) [Example 2hy, 3-[4-(2-Morpholin-4-yl-ethyl)-piperidin-1-ylmethyl]-1-oxo-2-phenyl-1,2-dihydro-isoquinoline-4-carboxylic acid [cyclopropyl-(3-fluoro-phenyl)-methyl]-amide]
10	44		O=C(NC(c1cccc(F)c1)C1CC1)c1c(CN2CCN(CCc3ccccc3)CC2)n(-c2ccccc2)c(=O)c2ccccc12 (centres unmarked) [Example 2hq, 1-Oxo-3-(4-phenethyl-piperazin-1-ylmethyl)-2-phenyl-1,2-dihydro-isoquinoline-4-carboxylic acid [cyclopropyl-(3-fluoro-phenyl)-methyl]-amide]
16	46		O=C(N[C@H](c1cccc(F)c1)C1CC1)c1c(CN2CCCC2=O)n(-c2ccccc2)c(=O)c2c(Cl)cccc12 [Example 3d, 8-Chloro-1-oxo-3-(2-oxo-pyrrolidin-1-ylmethyl)-2-phenyl-1,2-dihydro-isoquinoline-4-carboxylic acid [(S)-cyclopropyl-(3-fluoro-phenyl)-methyl]-amide]
33	140		CC[C@H](NC(=O)c1c(CN2CCN(c3ccc4ncccc4c3)CC2)n(-c2ccccc2)c(=O)c2ccccc12)c1ccccc1 [Example 2fm, 1-Oxo-2-phenyl-3-(4-quinolin-6-yl-piperazin-1-ylmethyl)-1,2-dihydro-isoquinoline-4-carboxylic acid ((S)-1-phenyl-propyl)-amide]
290	360		CC[C@H](NC(=O)c1c(CN2CCCCCC2)n(-c2ccccc2)c(=O)c2ccccc12)c1ccccc1 [Example 2ah, 3-Azepan-1-ylmethyl-1-oxo-2-phenyl-1,2-dihydro-isoquinoline-4-carboxylic acid ((S)-1-phenyl-propyl)-amide]

Second part, the compound before the results:

Structure (SMILES)	Ki [1, 3] [nM]	IC50 [2] [nM]	Ki [1, 4] [nM]
CC[C@H](NC(=O)c1c(CN2CCC(O)(c3cccc(OC)c3)CC2)n(-c2ccccc2)c(=O)c2ccccc12)c1ccccc1 [Example 2gt, 3-[4-Hydroxy-4-(3-methoxy-phenyl)-piperidin-1-ylmethyl]-1-oxo-2-phenyl-1,2-dihydro-isoquinoline-4-carboxylic acid ((S)-1-phenyl-propyl)-amide]	9.2	22	
CC[C@H](NC(=O)c1c(CNC(C)(C)C)n(-c2ccccc2)c(=O)c2ccccc12)c1ccccc1 [Example 2ec, 3-(tert-Butylamino-methyl)-1-oxo-2-phenyl-1,2-dihydro-isoquinoline-4-carboxylic acid ((S)-1-phenyl-propyl)-amide]	210	520	
CC[C@H](NC(=O)c1c(CN2CCC(O)(c3cccc(OC)c3)CC2)n(-c2ccccc2)c(=O)c2c(Cl)cccc12)c1ccccc1 [Example 2kn, 8-Chloro-3-[4-hydroxy-4-(3-methoxy-phenyl)-piperidin-1-ylmethyl]-1-oxo-2-phenyl-1,2-dihydro-isoquinoline-4-carboxylic acid ((S)-1-phenyl-propyl)-amide]	8.7	41	
CC(C)(C)N1CCC(Cc2c(C(=O)N[C@H](c3cccc(F)c3)C3CC3)c3cccc(Cl)c3c(=O)n2-c2ccccc2)CC1 [Example 8a, 3-(1-tert-Butyl-piperidin-4-ylmethyl)-8-chloro-1-oxo-2 phenyl-1,2-dihydro-isoquinoline-4-carboxylic acid [(S)-cyclopropyl-(3-fluoro-phenyl)-methyl]-amide]	7	9.9	
CC[C@H](NC(=O)c1c(CN2CCCNCC2)n(-c2ccccc2)c(=O)c2c(Cl)cccc12)c1ccccc1 [Example 2kh, 8-Chloro-3-[1,4]diazepan-1-ylmethyl-1-oxo-2-phenyl-1,2-dihydro-isoquinoline-4-carboxylic acid ((S)-1-phenyl-propyl)-amide]	82	120	
Cc1c(C(=O)N[C@H](c2ccccc2)C2CCC2)c2cccc(Cl)c2c(=O)n1-c1ccccc1 [Example 1bn, 8-Chloro-3-methyl-1-oxo-2-phenyl-1,2-dihydro-isoquinoline-4-carboxylic acid ((S)cyclobutyl-phenyl-methyl)-amide]	23	23	
CC[C@H](NC(=O)c1c(C)n(-c2ccccc2)c(=O)c2c(Cl)cccc12)c1ccccc1 [Example 1i, 8-Chloro-3-methyl-1-oxo-2-phenyl-1,2-dihydro-isoquinoline-4-carboxylic acid ((S)-1-phenyl-propyl)-amide]	41	130	
CC[C@H](NC(=O)c1c(CN(C)C)n(-c2ccccc2)c(=O)c2ccccc12)c1ccccc1 [Example 2a, 3-Dimethylarrtinomethyl-1-oxo-2 phenyl-1,2-dihydro-isoquinoline-4-carboxylic acid ((S)-1-phenyl-propyl)-amide]			180
Cc1c(C(=O)NN(c2ccccc2)c2ccccc2)c2ccccc2c(=O)n1-c1ccccc1 [Example 5a, 3-Methyl-1-oxo-2 phenyl-1,2-dihydro-isoquinoline-4-carboxylic acid N',N'-diphenyl-hydrazide]			55
Cc1c(C(=O)N[C@@H](c2cccc(F)c2)C2CC2)c2cccc(Cl)c2c(=O)n1-c1ccccc1 [Example 1bl, 8-Chloro-3-methyl-1-oxo-2-phenyl-1,2-dihydro-isoquinoline-4-carboylic acid [(R)-cyclopropyl-(3-fluoro-phenyl)-methyl]-amide]	470		
